Reference: ChEMBL document CHEMBL5360650, “Discovery of Small-Molecule TIM-3 Inhibitors for Acute Myeloid Leukemia Using Pharmacophore-Based Virtual Screening” (J Med Chem, 2023)
Calls of active or inactive are those of the source. The calls are words filed in the database; no cut-off is given here.

How the values were obtained:
[1] = molecular target: T1, Hepatitis A virus cellular receptor 2 (Homo sapiens, UniProt Q8TDQ0); experiment: Binding affinity to His-tagged recombinant human TIM3 expressed in HEK293 cells assessed as dissociation constant by sensor chip immobilization based SPR analysis
T1 sequence (Q8TDQ0 whole entry): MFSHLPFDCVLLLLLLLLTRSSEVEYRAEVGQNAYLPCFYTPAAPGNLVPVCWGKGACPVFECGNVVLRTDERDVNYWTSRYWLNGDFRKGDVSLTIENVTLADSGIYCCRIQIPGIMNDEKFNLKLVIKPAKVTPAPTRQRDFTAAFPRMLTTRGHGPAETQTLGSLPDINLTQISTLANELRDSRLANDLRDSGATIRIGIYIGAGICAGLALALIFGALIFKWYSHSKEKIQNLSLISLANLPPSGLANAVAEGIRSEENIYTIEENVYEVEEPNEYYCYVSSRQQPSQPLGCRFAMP

Kasumi 1 = experiment: Inhibition of cell proliferation of human Kasumi 1 cocultured with 5 uM compound treated human PBMC cells by H3 thymidine uptake; type: functional, cell-based
[2] = molecular target: Hepatitis A virus cellular receptor 2 (Homo sapiens) (UniProt Q8TDQ0); experiment: Inhibition of recombinant human Gal-9 binding to biotinylated recombinant human TIM3 at 1 uM by competitive ELISA method
Homo sapiens = species on record: Homo sapiens; experiment: Inhibition of polyhis-tagged CEACAM1 binding to recombinant human TIM3 at 200 to 1000 nM preincubated with TIM3 for 1 hr followed by CEACAM1 addition measured after 1 hr by ELISA method; settings: dose 200-1000 nM, time 2.0 hrs
[3] = molecular target: T1, Hepatitis A virus cellular receptor 2; experiment: Binding affinity to His-tagged recombinant human TIM3 expressed in HEK293 cells assessed as dissociation constant by MST assay; type: cell-based
THP-1 = experiment: Inhibition of cell proliferation of human THP-1 NucLight Red cells at 5 uM by incucyte based immune cell killing assay; type: functional
[4] = molecular target: Hepatitis A virus cellular receptor 2 (Homo sapiens) (UniProt Q8TDQ0); experiment: Inhibition of AF647-labeled TIM3 (unknown origin) binding to ptdSer in staurosporine-induced human Jurkat cells at 200 to 1000 nM preincubated with TIM3 followed by cell culture addition by flow cytometry; type: cell-based; settings: dose 200-1000 nM
[5] = molecular target: Hepatitis A virus cellular receptor 2 (Homo sapiens) (UniProt Q8TDQ0); experiment: Inhibition of recombinant TIM3 (unknown origin) cocultured in PBMC cells assessed as IFN-gamma release at 5 uM by ELISA method; type: cell-based

SMILES	Kd [1]	also measured
COc1ccc(-c2noc(-c3ccccc3OCC(=O)Nc3cc(C)cc(C)c3)n2)cc1	28.9 µM	
COc1ccc(-c2noc(-c3cccc(OCC(=O)Nc4ccccc4F)c3)n2)cc1	27.6 µM	
Cc1ccc(OCC(=O)Nc2cccc(-c3nc(-c4ccccc4)no3)c2)cc1	53.1 µM	
COc1ccc(-c2noc(-c3cccc(NC(=O)COc4ccc(C)cc4)c3)n2)cc1	9.45 µM	
COc1cc(-c2cc(OC)c3c(C)oc(C)c3c(=O)c2)ccc1OC(=O)c1ccc(C)cc1	28.9 µM	
COc1ccc(-c2noc(-c3cccc(NC(=O)COc4ccccc4)c3)n2)cc1	12.7 µM	
O=C(COc1ccccc1)Nc1cccc(-c2nc(-c3ccccc3)no2)c1	63.7 µM	
COc1ccc(-c2noc(-c3cccc(OCC(=O)Nc4ccc(F)cc4)c3)n2)cc1	20.4 µM	
COc1ccc(-c2noc(-c3cccc(OCC(=O)NCc4ccco4)c3)n2)cc1	11.6 µM	
Cc1cccc(-c2noc(-c3cccc(NC(=O)COc4ccccc4)c3)n2)c1	46.3 µM	
Cc1ccc(-c2noc(-c3cccc(NC(=O)COc4ccccc4)c3)n2)cc1	42.4 µM	
Cc1ccc(Nc2nc(C)cc(Nc3ccc(NC(=O)c4ccc5c(c4)OCO5)cc3)n2)cc1	17.3 µM	
COc1ccc(-c2noc(-c3cccc(NC(=O)COc4ccccc4C)c3)n2)cc1	8.32 µM	

The next compounds have a lower Kd [1] than those just listed; values first:

Kd [1]	SMILES	also measured
6.04 µM	COc1ccc(-c2noc(-c3cccc(NC(=O)COc4cccc(C)c4)c3)n2)cc1	
3.12 µM	COc1ccc(-c2noc(-c3cccc(OCC(=O)Nc4cccc(C)c4)c3)n2)cc1	
2.47 µM	COc1ccc(-c2noc(-c3cccc(OCC(=O)Nc4ccc(C)nc4)c3)n2)cc1	
2.01 µM	COc1ccc(-c2noc(-c3cccc(OCC(=O)Nc4ccncc4)c3)n2)cc1	
1.63 µM	COc1ccc(-c2noc(-c3cccc(OCC(=O)Nc4cccc(OC)c4)c3)n2)cc1	
1.35 µM	CCOc1ccc(NC(=O)COc2cccc(-c3nc(-c4ccc(OC)cc4)no3)c2)cc1	
1.28 µM	CCOc1ccc(NC(=O)COc2cccc(-c3noc(-c4ccc(OC)cc4)n3)c2)cc1	
0.98 µM	COc1ccc(-c2noc(-c3cccc(OCC(=O)Nc4cc(OC)ccc4OC)c3)n2)cc1	
0.61 µM	COc1ccc(-c2noc(-c3cccc(OCC(=O)Nc4ccc(OC)cc4OC)c3)n2)cc1	inhibition (Kasumi 1): Active; inhibition [2]: Active; inhibition (Homo sapiens): Active; Kd [3]: 0.00058 µM; inhibition (THP-1): Active; inhibition [4]: Active; inhibition [5]: Active
